# Results published in patent publication US7419944B2, “Aqueous disinfecting systems” (Novartis AG, priority 2000, dated 2008).
# Tests used:
# [1] = tested on: Candida albicans; assay: Semi-quantitative screen of common buffers plus approx. 1.2 ppm PHMB for antimicrobial activity; type: cell-based; settings: for log reduction: buffer of equal molarity plus approx. 1.2 ppm PHMB, Candida albicans approx. 4x10^5 cfu/ml, estimated visually, in duplicate; for log reduction / estimated relative antimicrobial activity: 4.0 hour exposure; for estimated relative antimicrobial activity: buffer plus approx. 1.2 ppm PHMB, Candida albicans
# Procedure: In this example common buffers plus approximately 1.2 ppm PHMB are evaluated for antimicrobial activity against Candida albicans. The pH and molarity of each solution was adjusted to approximately the same values. In that log reductions are estimated by visual observation of solution color and/or pellet formation in the bottom of the test tube, the test is semi-quantitative. All tests were performed in duplicate. All of the biological buffers shown in are described in Biochemicals and Reagents, Sigma-Aldrich CO., 2000-2001 edition Sigma-Aldrich, or online at URL sigma-aldrich.com.
# Tubes of sterile solutions of buffer of equal molarity plus approxiamately 1.2 ppm PHMB are challenged with a suspension of Candida albicans at approx. 4×10^5 cfu/ml. Following 4.0 hour exposure, aliquots of each test solution are serially diluted to 10^−5 in DEB. Following approx. 40 hours incubation at ˜32° C., the tubes are observed for discoloration of the DEB and for a pellet in the 10^−5 tube. The entire study is then performed in duplicate.
# [2] = cited from earlier work
compound,measurement,setting,value
O=S(=O)(O)CC(O)CNC(CO)(CO)CO (stereo not shown) [TAPSO],log reduction,[1],1 log
same,estimated relative antimicrobial activity,[1],better activity than phosphate
O=S(=O)(O)CCNC(CO)(CO)CO [TES],log reduction,[1],<1 log
O=S(=O)(O)CC(O)CN1CCOCC1 (stereo not shown) [MOPSO],log reduction,[1],NONE
"OCC(CO)(CO)NCCCNC(CO)(CO)CO [BIS-TRIS propane, 1,3-bis(tris[hydroxymethyl]methylamino)propane]",log reduction,[1],2-3 log
same,estimated relative antimicrobial activity,[1],superior activity
same,antimicrobial activity compared with solutions employing any of the other buffering agents,[1]; screening study of 15 biological buffers with polyhexamethylene biguanide or alexidine,significantly higher
same,pH range useful as a buffering agent,[2]; aqueous solutions,6.3-9.3
same,pKa1,[2]; dissociation constant,6.8
same,pKa2,[2]; dissociation constant,9.5
O=S(=O)(O)CC(O)CN(CCO)CCO (stereo not shown) [DIPSO],log reduction,[1],<1 log
O=S(=O)(O)CCCN1CCOCC1 [MOPS],log reduction,[1],NONE
NC(=O)CNCCS(=O)(=O)O [ACES],log reduction,[1],<1 log
Borate,log reduction,[1],2-3 log
same,estimated relative antimicrobial activity,[1],superior activity
O=S(=O)(O)CCN1CCN(CCS(=O)(=O)O)CC1 [PIPES],log reduction,[1],NONE
O=S(=O)(O)CCN1CCN(CCO)CC1 [HEPES],log reduction,[1],<1 log
OCCN(CCO)C(CO)(CO)CO [BIS-TRIS],log reduction,[1],1 log
same,estimated relative antimicrobial activity,[1],better activity than phosphate
O=S(=O)(O)CCN(CCO)CCO [BES],log reduction,[1],NONE
NC(=O)CN(CC(=O)O)CC(=O)O [ADA],log reduction,[1],NONE
O=S(=O)(O)CCCCN1CCOCC1 [MOBS],log reduction,[1],<1 log
